Source: ChEMBL document CHEMBL5226279, “Mercaptoacetamide: A promising zinc-binding group for the discovery of selective histone deacetylase 6 inhibitors” (Eur J Med Chem, 2021)
Converted amounts (≈) assume the structure as drawn.

Columns and labels:
[1] = Stability in dog liver microsomes assessed as half life; format: ADME, Canis lupus familiaris, Microsome
[2] = Stability in rat liver microsomes assessed as half life; format: ADME, Microsome
[3] = Stability in rat plasma assessed as half life; format: ADME, cell-free
[4] = Clearance in mouse at 400 mg/kg, ip; format: ADME, organism-based; settings: in vivo
[5] = Cmax in mouse at 400 mg/kg, ip; format: ADME, organism-based; parameters: dose 400 mg/kg, route ip; settings: in vivo
[6] = Stability in human plasma assessed as half life; format: ADME, cell-free
[7] = AUC in mouse at 400 mg/kg, ip; format: ADME, organism-based; parameters: dose 400 mg/kg, route ip; settings: in vivo
[8] = Tmax in mouse at 400 mg/kg, ip; format: ADME, organism-based; settings: in vivo
[9] = Solubility of compound in HCl at pH 1.2 at 37 degreeC measured after 24 hrs; format: physicochemical
[10] = Apparent permeability across apical to basolateral side in human Caco-2 cells; format: ADME, cell-based
[11] = Stability in porcine plasma assessed as half life; format: ADME, cell-free, Sus scrofa; settings: pig
[12] = Apparent permeability across basolateral to apical side in human Caco-2 cells; format: ADME, cell-based
[13] = Stability in human liver microsomes assessed as half life; format: ADME, Microsome
[14] = Stability in mouse plasma assessed as half life; format: ADME, cell-free
[15] = Solubility of compound in PBS at pH 7.4 at 37 degreeC measured after 24 hrs; format: physicochemical
[16] = Half life in mouse at 400 mg/kg, ip; format: ADME, organism-based; settings: in vivo
[17] = Lipophilicity, logD of the compound at 37 degreeC; format: physicochemical; settings: octanol/water
[18] = target: T1, Polyamine deacetylase HDAC10 (Homo sapiens, UniProt Q969S8); experiment: Inhibition of human HDAC10 using FAM-labeled acetylated peptide as substrate incubated for 17 hrs by fluorescence based assay
T1 sequence (Q969S8 whole entry): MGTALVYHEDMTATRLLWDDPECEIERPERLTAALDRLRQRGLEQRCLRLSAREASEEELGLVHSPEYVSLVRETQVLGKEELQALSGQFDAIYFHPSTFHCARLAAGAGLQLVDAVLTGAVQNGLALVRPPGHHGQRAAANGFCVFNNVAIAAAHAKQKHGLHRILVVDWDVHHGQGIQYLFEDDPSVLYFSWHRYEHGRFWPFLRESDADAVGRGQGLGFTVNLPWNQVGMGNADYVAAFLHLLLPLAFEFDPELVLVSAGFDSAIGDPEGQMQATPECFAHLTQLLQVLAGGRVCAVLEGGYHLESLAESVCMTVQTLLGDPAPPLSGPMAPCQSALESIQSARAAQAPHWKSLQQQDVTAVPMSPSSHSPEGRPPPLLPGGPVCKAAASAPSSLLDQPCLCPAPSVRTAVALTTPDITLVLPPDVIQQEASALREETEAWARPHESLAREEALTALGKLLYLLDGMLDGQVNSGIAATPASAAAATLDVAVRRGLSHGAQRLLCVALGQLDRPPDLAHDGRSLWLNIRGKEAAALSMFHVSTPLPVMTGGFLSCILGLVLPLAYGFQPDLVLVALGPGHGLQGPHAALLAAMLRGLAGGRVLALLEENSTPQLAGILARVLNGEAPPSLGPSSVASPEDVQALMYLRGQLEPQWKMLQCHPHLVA

Histone deacetylase 1 [19] = target: T2, Histone deacetylase 1 (Homo sapiens, UniProt Q13547); experiment: Inhibition of human HDAC1 using FAM-labeled acetylated peptide as substrate incubated for 17 hrs by fluorescence based assay
Histone deacetylase 2 [20] = target: T3, Histone deacetylase 2 (Homo sapiens, UniProt Q92769); experiment: Inhibition of human HDAC2 using FAM-labeled acetylated peptide as substrate incubated for 17 hrs by fluorescence based assay
Histone deacetylase 8 = target: T4, Histone deacetylase 8 (Homo sapiens, UniProt Q9BY41); experiment: Inhibition of human HDAC8 using FAM-labeled acetylated peptide as substrate incubated for 17 hrs by fluorescence based assay
T4 sequence (Q9BY41 whole entry): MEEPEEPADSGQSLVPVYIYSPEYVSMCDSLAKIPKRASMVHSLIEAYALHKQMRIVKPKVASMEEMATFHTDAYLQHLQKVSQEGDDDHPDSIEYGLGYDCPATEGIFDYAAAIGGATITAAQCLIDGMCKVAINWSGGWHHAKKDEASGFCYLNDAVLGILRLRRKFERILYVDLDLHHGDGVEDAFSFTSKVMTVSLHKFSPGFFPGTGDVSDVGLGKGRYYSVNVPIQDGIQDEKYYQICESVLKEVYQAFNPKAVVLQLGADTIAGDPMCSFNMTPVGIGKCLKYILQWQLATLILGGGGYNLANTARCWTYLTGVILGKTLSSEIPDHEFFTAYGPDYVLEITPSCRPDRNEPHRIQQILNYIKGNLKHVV

[21] = target: T5, Protein deacetylase HDAC6 (Homo sapiens, UniProt Q9UBN7); experiment: Inhibition of human HDAC6 using FAM-labeled acetylated peptide as substrate incubated for 17 hrs by fluorescence based assay
T5 sequence (Q9UBN7 whole entry): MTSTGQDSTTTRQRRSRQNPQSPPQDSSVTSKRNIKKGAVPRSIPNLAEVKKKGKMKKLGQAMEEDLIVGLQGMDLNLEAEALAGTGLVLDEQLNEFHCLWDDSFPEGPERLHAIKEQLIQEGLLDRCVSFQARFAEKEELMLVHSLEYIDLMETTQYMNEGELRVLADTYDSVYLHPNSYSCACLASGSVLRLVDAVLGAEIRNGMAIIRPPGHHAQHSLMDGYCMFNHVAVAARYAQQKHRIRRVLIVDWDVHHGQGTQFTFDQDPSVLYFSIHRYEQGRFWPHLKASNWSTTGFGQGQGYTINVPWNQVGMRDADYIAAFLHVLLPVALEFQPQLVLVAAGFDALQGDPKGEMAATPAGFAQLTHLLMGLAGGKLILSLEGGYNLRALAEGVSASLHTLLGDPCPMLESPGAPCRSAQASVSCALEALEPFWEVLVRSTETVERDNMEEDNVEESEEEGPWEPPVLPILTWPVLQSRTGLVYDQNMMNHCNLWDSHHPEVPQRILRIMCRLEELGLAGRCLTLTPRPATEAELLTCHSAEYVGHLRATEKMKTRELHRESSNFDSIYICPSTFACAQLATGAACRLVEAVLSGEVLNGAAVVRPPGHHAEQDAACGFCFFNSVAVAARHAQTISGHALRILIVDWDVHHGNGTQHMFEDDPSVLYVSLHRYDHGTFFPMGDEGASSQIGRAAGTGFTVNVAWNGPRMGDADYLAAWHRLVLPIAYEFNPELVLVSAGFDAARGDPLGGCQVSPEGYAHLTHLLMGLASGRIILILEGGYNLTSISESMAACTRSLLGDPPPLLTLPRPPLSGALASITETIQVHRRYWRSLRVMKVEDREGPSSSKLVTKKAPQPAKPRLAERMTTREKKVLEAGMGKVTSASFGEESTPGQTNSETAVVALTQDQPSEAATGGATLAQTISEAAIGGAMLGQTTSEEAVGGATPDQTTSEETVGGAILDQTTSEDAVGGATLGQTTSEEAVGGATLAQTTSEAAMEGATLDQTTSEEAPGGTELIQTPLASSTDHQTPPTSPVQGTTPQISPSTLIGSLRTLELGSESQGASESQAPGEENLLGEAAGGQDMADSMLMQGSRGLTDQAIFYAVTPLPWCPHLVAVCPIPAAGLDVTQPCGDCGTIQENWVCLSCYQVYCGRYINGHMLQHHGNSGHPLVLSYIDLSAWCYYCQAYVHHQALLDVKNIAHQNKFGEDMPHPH

Histone deacetylase 1 [22] = target: T2, Histone deacetylase 1; experiment: Inhibition of human HDAC1
Histone deacetylase 1 [23] = target: T2, Histone deacetylase 1; experiment: Inhibition of human full length recombinant HDAC1 expressed in baculovirus infected Sf9 cells using RHKKAc as substrate preincubated for 5 to 10 mins followed by substrate addition and measured after 2 hrs by fluorescence based analysis
[24] = target: T5, Protein deacetylase HDAC6; experiment: Inhibition of human full length recombinant HDAC6 expressed in baculovirus infected Sf9 cells using RHKKAc as substrate preincubated for 5 to 10 mins followed by substrate addition and measured after 2 hrs by fluorescence based analysis
Histone deacetylase 2 [25] = target: T3, Histone deacetylase 2; experiment: Inhibition of human full length recombinant HDAC2 expressed in baculovirus infected Sf9 cells using RHKKAc as substrate preincubated for 5 to 10 mins followed by substrate addition and measured after 2 hrs by fluorescence based analysis
Histone deacetylase = experiment: Inhibition of HDAC (unknown origin); format: protein assay, Homo sapiens
Histone deacetylase 4 = Histone deacetylase 4 (Homo sapiens, UniProt P56524); experiment: Inhibition of HDAC4 (unknown origin)
[26] = target: T1, Polyamine deacetylase HDAC10; experiment: Inhibition of HDAC10 (unknown origin)

T3 sequence (Q92769 whole entry): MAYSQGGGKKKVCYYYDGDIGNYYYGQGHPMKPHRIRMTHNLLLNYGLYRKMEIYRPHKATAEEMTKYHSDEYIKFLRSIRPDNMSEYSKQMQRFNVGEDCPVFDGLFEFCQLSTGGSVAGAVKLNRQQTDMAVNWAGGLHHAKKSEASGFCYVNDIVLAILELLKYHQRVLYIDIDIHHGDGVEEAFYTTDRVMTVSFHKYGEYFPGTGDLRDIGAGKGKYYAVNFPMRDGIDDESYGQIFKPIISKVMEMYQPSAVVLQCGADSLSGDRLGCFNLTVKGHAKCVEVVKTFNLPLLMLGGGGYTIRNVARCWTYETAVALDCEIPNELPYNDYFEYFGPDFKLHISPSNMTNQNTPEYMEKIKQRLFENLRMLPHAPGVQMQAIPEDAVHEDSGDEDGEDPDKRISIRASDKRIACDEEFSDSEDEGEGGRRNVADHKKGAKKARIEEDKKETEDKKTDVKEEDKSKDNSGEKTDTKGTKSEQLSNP
T2 sequence (Q13547 whole entry): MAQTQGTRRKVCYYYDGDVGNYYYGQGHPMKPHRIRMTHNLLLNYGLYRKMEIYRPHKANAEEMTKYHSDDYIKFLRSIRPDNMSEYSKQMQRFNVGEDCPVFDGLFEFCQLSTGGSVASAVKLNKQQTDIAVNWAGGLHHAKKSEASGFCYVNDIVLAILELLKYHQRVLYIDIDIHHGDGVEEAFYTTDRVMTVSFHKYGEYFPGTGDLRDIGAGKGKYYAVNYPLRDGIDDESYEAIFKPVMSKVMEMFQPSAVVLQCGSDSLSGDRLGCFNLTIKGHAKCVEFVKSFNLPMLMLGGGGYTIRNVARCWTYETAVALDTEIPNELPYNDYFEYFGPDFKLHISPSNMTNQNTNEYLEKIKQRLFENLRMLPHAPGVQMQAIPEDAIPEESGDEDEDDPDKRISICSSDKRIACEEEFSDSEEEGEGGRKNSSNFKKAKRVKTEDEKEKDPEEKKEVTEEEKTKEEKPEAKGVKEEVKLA
Histone deacetylase 4, sequence (P56524 whole entry): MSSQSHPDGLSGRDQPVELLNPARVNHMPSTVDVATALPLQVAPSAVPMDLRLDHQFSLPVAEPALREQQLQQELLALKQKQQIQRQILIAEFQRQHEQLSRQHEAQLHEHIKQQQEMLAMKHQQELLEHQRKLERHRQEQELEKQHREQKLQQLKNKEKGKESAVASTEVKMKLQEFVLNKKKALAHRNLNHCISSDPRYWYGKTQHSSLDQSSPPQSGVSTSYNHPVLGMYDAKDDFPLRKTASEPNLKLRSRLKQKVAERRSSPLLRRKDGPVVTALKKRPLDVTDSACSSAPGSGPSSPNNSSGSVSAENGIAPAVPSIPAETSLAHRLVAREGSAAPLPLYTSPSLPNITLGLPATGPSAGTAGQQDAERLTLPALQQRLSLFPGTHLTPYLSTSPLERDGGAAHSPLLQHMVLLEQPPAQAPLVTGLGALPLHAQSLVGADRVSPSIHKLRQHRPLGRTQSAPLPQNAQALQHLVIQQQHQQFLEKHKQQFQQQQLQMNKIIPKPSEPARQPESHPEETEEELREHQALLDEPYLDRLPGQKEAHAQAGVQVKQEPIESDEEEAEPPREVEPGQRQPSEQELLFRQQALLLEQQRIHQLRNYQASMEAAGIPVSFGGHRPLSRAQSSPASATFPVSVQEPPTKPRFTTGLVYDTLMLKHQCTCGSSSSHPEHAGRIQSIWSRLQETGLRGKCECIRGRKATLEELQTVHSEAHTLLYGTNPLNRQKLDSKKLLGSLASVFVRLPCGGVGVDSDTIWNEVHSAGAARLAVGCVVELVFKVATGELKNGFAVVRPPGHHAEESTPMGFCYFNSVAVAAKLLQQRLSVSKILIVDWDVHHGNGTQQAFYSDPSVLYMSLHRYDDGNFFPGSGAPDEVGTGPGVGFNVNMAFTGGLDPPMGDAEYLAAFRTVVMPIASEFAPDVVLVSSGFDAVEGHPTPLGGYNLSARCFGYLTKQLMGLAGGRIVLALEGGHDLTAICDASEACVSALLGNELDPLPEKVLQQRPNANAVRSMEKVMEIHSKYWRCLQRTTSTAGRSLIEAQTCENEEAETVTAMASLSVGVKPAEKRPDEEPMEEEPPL

SMILES	IC50 (Histone deacetylase 1 [23]) [µM]	IC50 [24] [µM]	IC50 (Histone deacetylase 2 [25]) [µM]	other results
CN(C)c1ccc(C(=O)NCCCCCNC(=O)CS)cc1	–	–	–	half-life [1]: 0.717 h; half-life [2]: 1.17 h; half-life [3]: 1.65 h; CL/F [4]: 81.2 mL/min; Cmax [5]: 1540 nM; half-life [6]: 1.28 h; AUC [7]: 4.23 µM·h; Tmax [8]: 0.5 h; solubility at 24 h [9]: 1000 µg/mL (≈ 3090 µM); Papp A→B [10]: 7.33 ×10⁻⁶ cm/s; half-life [11]: 1.48 h; Papp B→A [12]: 10 ×10⁻⁶ cm/s; half-life [13]: 1.13 h; half-life [14]: 2.88 h; solubility at 24 h [15]: 120 µg/mL (≈ 371 µM); half-life [16]: 1.98 h; logD [17]: 2.19
N[C@@H](Cc1ccccc1)C(=O)Nc1ccccc1-c1ccc(NC(=O)CCCCCNC(=O)CS)cc1	–	–	–	IC50 [18]: 7.22 µM; IC50 (Histone deacetylase 1 [19]): 2.76 µM; IC50 (Histone deacetylase 2 [20]): > 30 µM; IC50 (Histone deacetylase 8): 5.19 µM; IC50 [21]: 0.45 µM
NCC(=O)Nc1ccccc1-c1ccc(NC(=O)CCCCCNC(=O)CS)cc1	–	–	–	IC50 [18]: 7.43 µM; IC50 (Histone deacetylase 1 [19]): 3.96 µM; IC50 (Histone deacetylase 2 [20]): 16 µM; IC50 (Histone deacetylase 8): 6.03 µM; IC50 [21]: 0.39 µM
O=C(CS)NCCCCCn1ccc2cc(Cl)c(Cl)cc21	–	–	–	IC50 (Histone deacetylase 1 [22]): 7.9 µM
Cc1onc(-c2ccccc2)c1/C=C/CCCCCNC(=O)CS	28	3.5	–	–
Cc1onc(-c2ccccc2)c1C(=O)NCCCCCNC(=O)C(C)(C)S	> 30	> 30	> 30	–
Cc1onc(-c2ccccc2)c1/C=C\CCCCCNC(=O)CS	> 30	4.8	–	–
Cc1onc(-c2ccccc2)c1C(=O)NCCCCCNC(=O)[C@H](C)S	> 30	> 30	> 30	–
Cc1noc(-c2ccccc2)c1C#CCCCCNC(=O)C(C)(C)S	> 30	> 30	> 30	–
Cc1onc(-c2ccccc2)c1/C=C/c1ccc(CNC(=O)C(C)(C)S)cc1	> 30	> 30	> 30	–
Cc1onc(-c2ccccc2)c1COCCCCCNC(=O)[C@@H](C)S	1.5	0.83	–	–
Cc1onc(-c2ccccc2)c1COCCCCCNC(=O)[C@H](C)S	> 30	> 30	–	–
Cc1noc(-c2ccccc2)c1C#CCCCCCNC(=O)C(C)(C)S	> 30	> 30	> 30	–
Cc1onc(-c2ccccc2)c1C=CCCCCCNC(=O)C(C)(C)S (mixture of isomers)	> 30	> 30	> 30	–
Cc1onc(-c2ccccc2)c1C=CCCCCCNC(=O)C(C)S (mixture of isomers)	> 30	9.8	> 30	–
Cc1onc(-c2ccccc2)c1C=CCCCCCNC(=O)CS (mixture of isomers)	> 30	2.7	> 30	–
CC(C)C(NC(=O)CCNC(=O)CS)C(=O)Nc1cnc2ccccc2c1 (racemic)	–	–	–	IC50 (Histone deacetylase): 25.1 µM
Cc1noc(-c2cccc(F)c2)c1C#CCCCCCNC(=O)C(C)S (racemic)	3.7	2.6	9.4	–
Cc1onc(-c2ccccc2)c1C(=O)NCCCCCNC(=O)C(C)S (racemic)	> 30	1.1	> 30	–
Cc1onc(-c2ccccc2)c1/C=C/c1ccc(CNC(=O)C(C)S)cc1 (racemic)	> 30	> 30	> 30	–
Cc1noc(-c2ccccc2)c1C#CCCCCCNC(=O)C(C)S (racemic)	2.7	2	7.5	–
CC(C)C(NC(=O)CCCNC(=O)CS)C(=O)Nc1cnc2ccccc2c1 (racemic)	–	–	–	IC50 (Histone deacetylase): 3.02 µM
Cc1onc(-c2ccccc2)c1COCCCCCNC(=O)C(C)S (racemic)	9.6	0.85	14	–
O=C(/C=C/c1cccc(S(=O)(=O)Nc2ccccc2)c1)NO [BELINOSTAT]	–	–	–	IC50 (Histone deacetylase 4): 1.24 µM; IC50 [26]: 0.031 µM
O=C(CCCCCCC(=O)Nc1ccccc1)NO [VORINOSTAT]	–	–	–	Papp A→B [10]: 3 ×10⁻⁶ cm/s; Papp B→A [12]: 6.33 ×10⁻⁶ cm/s
